# “Also recorded” adds a separate entry of the source.
# Key:
# [1] = tested on: Chick Chorioallantoic Membrane (CAM) vasculature; test: Chick chorioallantoic membrane (CAM) angiogenesis assay; assay type: in vivo; conditions: for Inhibition/n: 48 hours exposure
# Procedure: Fertilized, domestic chick embryos were incubated for 3 days prior to shell-less culturing. In this procedure, the egg contents were emptied by removing the shell located around the air space. The interior shell membrane was then severed and the opposite end of the shell was perforated to allow the contents of the egg to gently slide out from the blunted end. The egg contents were emptied into round-bottom sterilized glass bowls and covered with petri dish covers. These were then placed into an incubator at 90% relative humidity and 3% CO2 and incubated for 3 days.
# Ten microliter aliquots of this solution were dried on parafilm for 1 hour forming disks 2 mm in diameter. The dried disks containing paclitaxel were then carefully placed at the growing edge of each CAM at day 6 of incubation. Controls were obtained by placing paclitaxel-free methylcellulose disks on the CAMs over the same time course. After a 2 day exposure (day 8 of incubation) the vasculature was examined with the aid of a stereomicroscope. Liposyn II, a white opaque solution, was injected into the CAM to increase the visibility of the vascular details. The vasculature of unstained, living embryos were imaged using a Zeiss stereomicroscope which was interfaced with a video camera (Dage-MTI Inc., Michigan City, Ind.). […] Image negatives were then made on a graphics recorder (Model 3000; Matrix Instruments, Orangeburg, N.Y.).
# The membranes of the 8 day-old shell-less embryo were flooded with 2% glutaraldehyde in 0.1M sodium cacodylate buffer; additional fixative was injected under the CAM. After 10 minutes in situ, the CAM was removed and placed into fresh fixative for 2 hours at room temperature. The tissue was then washed overnight in cacodylate buffer containing 6% sucrose. The areas of interest were postfixed in 1% osmium tetroxide for 1.5 hours at 4° C. The tissues were then dehydrated in a graded series of ethanols, solvent exchanged with propylene oxide, and embedded in Spurr resin. Thin sections were cut with a diamond knife, placed on copper grids, stained, and examined in a Joel 1200EX electron microscope. Similarly, […] sections were cut and stained with […] for light microscopy.
# At day 11 of development, chick embryos were used for the corrosion casting technique. Mercox resin (Ted Pella, Inc., Redding, Calif.) was injected into the CAM vasculature using a 30-gauge hypodermic needle. […] After injection, the plastic was allowed to sit in situ for an hour at room temperature and then overnight in an oven at 65° C. The CAM was then placed in 50% aqueous solution of sodium hydroxide to digest all organic components.
# This imaging setup was used at a magnification of 160× which permitted the direct visualization of blood cells within the capillaries; thereby blood flow in areas of interest may be easily assessed and recorded. For this study, the inhibition of angiogenesis was defined as an area of the CAM (measuring 2-6 mm in diameter) lacking a capillary network and vascular blood flow. Throughout the experiments, avascular zones were assessed on a 4 point avascular gradient (Table 11). This scale represents the degree of overall inhibition with maximal inhibition represented as a 3 on the avascular gradient scale.
# [2] = tested on: AP-1 transcriptional activity; test: IL-1 stimulated AP-1 transcriptional activity (AP-1 driven CAT reporter gene) in transfected chondrocytes; assay type: cell-based; conditions: IL-1 50 ng/ml, 24 hours, paclitaxel 10^−7 to 10^−5 M
# Description: The results shown are representative of three independent experiments.
# stromelysin (MMP-3) mRNA = test: IL-1 induced MMP-3 (stromelysin) mRNA expression in chondrocytes, Northern blot
# AP-1 = test: IL-1 induced AP-1 binding activity in chondrocyte lysates; assay type: cell-based; conditions: lysates from chondrocytes pretreated with the agent (FIG. 1C)
# [3] = tested on: Primary human smooth muscle cells; test: Smooth muscle cell migration assay (Boyden chamber, rhPDGF-BB chemotaxis); assay type: cell-based; conditions: chemotaxis to rhPDGF-BB 10 ng/ml, 4 hours
# Procedure: Primary human smooth muscle cells were starved of serum in smooth muscle cell basal media containing insulin and human basic fibroblast growth factor (bFGF) for 16 hours prior to the assay. For the migration assay, cells were trypsinized to remove cells from flasks, washed with migration media and diluted to a concentration of 2-2.5×10^5 cells/ml in migration media. […] A 100 μL volume of smooth muscle cells (approximately 20,000-25,000 cells) was added to the top of a Boyden chamber assembly (Chemicon QCM CHEMOTAXIS 96-well migration plate). To the bottom wells, the chemotacetic agent, recombinant human platelet derived growth factor (rhPDGF-BB) was added at a concentration of 10 ng/ml in a total volume of 150 μL. Paclitaxel was prepared in DMSO at a concentration of 10^−2 M and serially diluted 10-fold to give a range of stock concentrations (10^−8 M to 10^−2 M). […]
# At the end of the 4 hour period, cells in the top chamber were discarded and the smooth muscle cells attached to the underside of the filter were detached for 30 minutes at 37° C. in Cell Detachment Solution (Chemicon). […] Relative fluorescence units from triplicate wells were averaged after subtracting background fluorescence (control chamber without chemoattractant) and average number of cells migrating was obtained from a standard curve of smooth muscle cells serially diluted from 25,000 cells/well down to 98 cells/well.
# [4] = tested on: collagenase and stromelysin; test: IL-1 induced collagenase and stromelysin RNA levels in chondrocytes; assay type: cell-based; conditions: pretreatment (FIG. 1D)
# [5] = tested on: AP-1 DNA binding activity; test: IL-1 induced AP-1 DNA binding activity, gel mobility shift assay with chondrocyte extracts; assay type: cell-based; conditions: chondrocyte lysates, pretreated with paclitaxel 10^−7 to 10^−5 M for 24 hours
# Procedure: Binding activity was assayed with a radiolabeled human AP-1 sequence probe and gel mobility shift assay. Extracts from chondrocytes untreated or treated with various amounts of paclitaxel (10^−7 to 10^−5M) followed by IL-1β (20 ng/ml) were incubated with excess probe on ice for 30 minutes, followed by non-denaturing gel electrophoresis. The “com” lane contains excess unlabeled AP-1 oligonucleotide. The results shown are representative of three independent experiments.
# collagenase (MMP-1) mRNA = test: IL-1 induced MMP-1 (collagenase) mRNA expression in chondrocytes, Northern blot
# [6] = in vivo; cited from earlier work
# [7] = water; cited from earlier work
# [8] = 200 mg/day orally; cited from earlier work
# [9] = within 48 hours, depending on concentration
# [10] = 10^−5 M paclitaxel, 24 hours pretreatment
# [11] = chondrocytes pretreated with paclitaxel for 24 hours
smiles,measurement,setting,value
CC(=O)O[C@H]1C(=O)[C@@]2(C)[C@H]([C@H](OC(=O)c3ccccc3)[C@]3(O)C[C@H](OC(=O)[C@H](O)[C@@H](NC(=O)c4ccccc4)c4ccccc4)C(C)=C1C3(C)C)[C@]1(OC(C)=O)CO[C@@H]1C[C@@H]2O [paclitaxel],Inhibition/n,[1]; 0.25 ug in methylcellulose (10 ul) disk,2/11
same,Inhibition/n,[1]; 0.5 ug in methylcellulose (10 ul) disk,6/11
same,Inhibition/n,[1]; 1 ug in methylcellulose (10 ul) disk,6/15
same,Inhibition/n,[1]; 5 ug in methylcellulose (10 ul) disk,20/27
same,Inhibition/n,[1]; 10 ug in methylcellulose (10 ul) disk,16/21
same,Inhibition/n,[1]; 30 ug in methylcellulose (10 ul) disk,31/31
same,angiogenesis in the CAM,[1]; 48 hours after application to the CAM,inhibited
same,"avascular gradient scale, maximal avascular zone",[1]; [9],3
same,maximal avascular zone diameter,[1]; [9],6 mm
same,IL-1 induced AP-1 reporter gene CAT activity,[2],decreased CAT activity in a concentration dependent manner; also recorded: reduced IL-1 induced AP-1 reporter gene CAT activity
same,inhibition of stromelysin mRNA expression,stromelysin (MMP-3) mRNA; [10],complete inhibition
same,"stromelysin mRNA levels, IL-1 induced",stromelysin (MMP-3) mRNA; [11],significantly reduced
same,concentration inhibiting stromelysin expression in vitro,"stromelysin (MMP-3) mRNA; chondrocytes, IL-1 induced",10^−6 M
same,IL-1 induced binding activity,AP-1,decreased
same,IC50,[3],0.76 nM
same,IL-1 induction of collagenase and stromelysin RNA levels,[4],inhibited
same,IL-1 induced AP-1 binding activity to oligonucleotides,[5],decreased
same,inhibition of collagenase mRNA expression,collagenase (MMP-1) mRNA; [10],complete inhibition
same,"collagenase mRNA levels, IL-1 induced",collagenase (MMP-1) mRNA; [11],significantly reduced
same,concentration inhibiting collagenase expression in vitro,"collagenase (MMP-1) mRNA; chondrocytes, IL-1 induced",10^−6 M
"CN(C)/N=N/c1[nH]cnc1C(N)=O [Dacarbazine, dacarbazine]",absorption from the GI tract,[6],poorly absorbed
CC(=O)N1CCN(c2ccc(OCC3COC(Cn4ccnc4)(c4ccc(Cl)cc4Cl)O3)cc2)CC1 (centres unmarked) [ketoconazole],solubility in water,[7],essentially insoluble in water
same,serum concentration,[8],about 3.2 micrograms
